A word on the EC50: it is the concentration that produces a half-maximal response. A higher EC50 goes with lower potency in that assay.

This passage reports EC50 results from BindingDB's records for doi:10.7270/Q2251GJ9 (The Scripps Research Institute Molecular Screening Center, 2007).

Molecules are shown by their SMILES. Counter-ions that a name gives are not always drawn.

Sequence of Sphingosine 1-phosphate receptor 1 (P21453 whole entry): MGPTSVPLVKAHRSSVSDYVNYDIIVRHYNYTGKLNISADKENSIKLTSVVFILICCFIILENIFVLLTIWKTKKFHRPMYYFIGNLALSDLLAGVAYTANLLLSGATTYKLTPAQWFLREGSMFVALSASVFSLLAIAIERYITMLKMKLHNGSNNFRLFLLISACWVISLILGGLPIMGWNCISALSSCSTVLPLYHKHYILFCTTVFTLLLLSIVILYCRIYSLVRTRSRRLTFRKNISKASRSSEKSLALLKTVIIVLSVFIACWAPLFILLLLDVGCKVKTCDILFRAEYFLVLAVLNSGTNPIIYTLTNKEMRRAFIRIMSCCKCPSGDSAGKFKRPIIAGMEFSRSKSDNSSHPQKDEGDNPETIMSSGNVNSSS

One assay addresses Sphingosine 1-phosphate receptor 1 (Homo sapiens, UniProt P21453). Nature of the assay: direct activation of human S1P1 – cell-based, agonist mode, 60K MLSMR set, dose response (AID 468).
Conditions: not given
Take `CCOC(=O)CN1C(=O)C(C)(C)Oc2ccc(C(=O)Nc3ccccc3OC)cc21` [2-[3-keto-6-[(2-methoxyphenyl)carbamoyl]-2,2-dimethyl-1,4-benzoxazin-4-yl]acetic acid ethyl ester]: a half-maximal response (EC50) required 4.29 µM.

In turn, `Cc1cc(N2CCN(c3nc4ccccc4s3)CC2)n2ncnc2n1` [2-[4-(5-methyl-[1,2,4]triazolo[1,5-a]pyrimidin-7-yl)-1-piperazinyl]-1,3-benzothiazole] came in with an EC50 of 7.9 µM.

Molecule `Cc1ccc(C(C)C)c(OCc2ccc(-c3nnco3)cc2)c1` [2-[4-[(2-isopropyl-5-methyl-phenoxy)methyl]phenyl]-1,3,4-oxadiazole] had an EC50 of 2.43 µM.

Molecule `O=S1(=O)C=C(Sc2nc3ccccc3s2)c2ccccc21` [2-[(1,1-dioxido-1-benzothien-3-yl)thio]-1,3-benzothiazole] gave an EC50 of 7.68 µM.

`COC(=O)c1sc(NC(=O)c2ccc(OC)cc2OC)nc1C` [2-[(2,4-dimethoxybenzoyl)amino]-4-methyl-thiazole-5-carboxylic acid methyl ester] registered an EC50 of 9.63 µM.

`Cc1cc(C=c2sc3nc4ccccc4n3c2=O)c(C)n1-c1ccccn1` [2-[(2,5-dimethyl-1-pyridin-2-yl-pyrrol-3-yl)methylidene]-[1,3]thiazolo[3,2-a]benzimidazol-1-one] came in with a half-maximal effective concentration (EC50) of 0.132 µM.

Molecule `Cc1ccccc1-c1nnc(SCc2ccccc2F)o1` [2-[(2-fluorobenzyl)thio]-5-(2-methylphenyl)-1,3,4-oxadiazole] yielded a half-maximal effective concentration (EC50) of 1.63 µM.

For `Cc1ccc(-c2nnc(SCc3ccccc3F)o2)cc1` [2-[(2-fluorobenzyl)thio]-5-(4-methylphenyl)-1,3,4-oxadiazole], the midpoint of the response, the EC50, lay at 1.78 µM.

As to `Cc1cccc(N2CCN(C(=O)CSCc3c(C)noc3C)CC2)c1C` [2-[(3,5-dimethyl-1,2-oxazol-4-yl)methylsulfanyl]-1-[4-(2,3-dimethylphenyl)piperazin-1-yl]ethanone], the concentration giving a half-maximal response (EC50) is 4.52 µM.

Turning to `CCn1c(SCC(=O)Nc2nc3ccc(C)cc3s2)nc2c(c1=O)SC(C)C2` (stereo not given) [2-[(3-ethyl-4-keto-6-methyl-6,7-dihydrothieno[3,2-d]pyrimidin-2-yl)thio]-N-(6-methyl-1,3-benzothiazol-2-yl)acetamide], a half-maximal response (EC50) required 5.59 µM.

Turning to `Clc1ccc(CSc2nnc(-c3ccncc3)o2)cc1` [2-[(4-chlorobenzyl)thio]-5-(4-pyridyl)-1,3,4-oxadiazole], it took 3.92 µM to reach a half-maximal effect (EC50).

The molecule `Cc1cc(C(=O)CSc2nnc(-c3ccncc3)n2-c2ccccc2)c(C)n1C` [2-[(4-phenyl-5-pyridin-4-yl-1,2,4-triazol-3-yl)sulfanyl]-1-(1,2,5-trimethylpyrrol-3-yl)ethanone] returned a 50% effective concentration (EC50) of 2.46 µM.

On to `CC(C)OC(=O)CSc1nc(N)c(C#N)c(-c2cccs2)c1C#N` [2-[(6-amino-3,5-dicyano-4-thiophen-2-yl-2-pyridinyl)thio]acetic acid propan-2-yl ester], for which the half-maximal effective concentration (EC50) was more than 10 µM.

`CC(C)(C)C1CCC2(CC1)C(C#N)=C(SCC(=O)Nc1ccccc1)NC(=O)C2C#N` (stereo not given) [2-[(9-tert-butyl-1,5-dicyano-2-oxidanylidene-3-azaspiro[5.5]undec-4-en-4-yl)sulfanyl]-N-phenyl-ethanamide] had an EC50 of 4.92 µM.

In the case of `COCCn1c(C)cc(C(=O)CSc2nc3ccccc3c(=O)[nH]2)c1C` [2-[[2-[1-(2-methoxyethyl)-2,5-dimethyl-3-pyrrolyl]-2-oxoethyl]thio]-1H-quinazolin-4-one], the concentration for a half-maximal effect (EC50) came out at 61.2 µM.

`COCCn1c(C)cc(C(=O)CSc2nnc(-c3cccnc3)n2-c2ccccc2F)c1C` [2-[[4-(2-fluorophenyl)-5-(3-pyridinyl)-1,2,4-triazol-3-yl]thio]-1-[1-(2-methoxyethyl)-2,5-dimethyl-3-pyrrolyl]ethanone]: the concentration giving a half-maximal response (EC50) is 1.87 µM.

Molecule `Cc1ccccc1-n1c(SCC(=O)c2cc(C)n(C)c2C)nnc1-c1ccncc1` [2-[[4-(2-methylphenyl)-5-pyridin-4-yl-1,2,4-triazol-3-yl]sulfanyl]-1-(1,2,5-trimethylpyrrol-3-yl)ethanone] yielded an EC50 of 10 µM.

`O=C(CSc1nnc(Cc2csc(Nc3cccc(Cl)c3)n2)o1)N1CCc2ccccc21` [2-[[5-[[2-(3-chloroanilino)-1,3-thiazol-4-yl]methyl]-1,3,4-oxadiazol-2-yl]sulfanyl]-1-(2,3-dihydroindol-1-yl)ethanone]: the EC50 was more than 95 µM.

On to `Cc1ccc(-c2nc(CSCC(=O)N3CCN(c4ccccn4)CC3)c(C)o2)cc1` [2-[[5-methyl-2-(4-methylphenyl)-1,3-oxazol-4-yl]methylsulfanyl]-1-(4-pyridin-2-ylpiperazin-1-yl)ethanone], for which the EC50 amounted to 5.51 µM.

`CCN(CC)C(=O)CS/C(=N/C#N)Nc1ccccc1F` [2-[[N-cyano-N'-(2-fluorophenyl)amidino]thio]-N,N-diethyl-acetamide] came in with an EC50 of more than 95 µM.

For the molecule `Clc1ccc(OCc2nnc(SCc3nc4ccccc4[nH]3)n2Cc2ccco2)cc1` [2-[[[5-[(4-chlorophenoxy)methyl]-4-(2-furanylmethyl)-1,2,4-triazol-3-yl]thio]methyl]-1H-benzimidazole], the EC50 worked out at 7.6 µM.

In the case of `Oc1ccc(C2NCc3ccccc3-n3cccc32)cc1Cl` (stereo not given) [2-chloranyl-4-(5,6-dihydro-4H-pyrrolo[1,2-a][1,4]benzodiazepin-4-yl)phenol;hydrochloride], the 50% effective concentration (EC50) turned out to be 3.04 µM.

Molecule `CCOC(=O)c1ccc2c(c1)C(=O)N(C1CCCCC1)C2=O` [2-cyclohexyl-1,3-diketo-isoindoline-5-carboxylic acid ethyl ester] registered an EC50 of more than 95 µM.

Regarding `CCOc1nc(C)ccc1-c1noc(-c2ccncc2)n1` [2-ethoxy-6-methyl-3-[5-(4-pyridinyl)-1,2,4-oxadiazol-3-yl]pyridine], the response was half-maximal at 5.42 µM (EC50).

In the case of `COc1cc(C#CC#CCN2CCCCC2)ccc1O` [2-methoxy-4-(5-piperidin-1-ylpenta-1,3-diynyl)phenol;hydrochloride], it took 8.34 µM to reach a half-maximal effect (EC50).

Molecule `COCC(=O)Nc1cccc(C(F)(F)F)c1` [2-methoxy-N-[3-(trifluoromethyl)phenyl]acetamide] gave a half-maximal effective concentration (EC50) of more than 95 µM.

For `Cc1ccc(-n2c(C)cc(C(=O)COC(=O)c3c(C)noc3C)c2C)cc1` [3,5-dimethyl-4-isoxazolecarboxylic acid [2-[2,5-dimethyl-1-(4-methylphenyl)-3-pyrrolyl]-2-oxoethyl] ester], the EC50 was determined as 8.31 µM.

`N#CCCS(=O)(=O)c1nnnn1-c1ccccc1` [3-(1-phenyltetrazol-5-yl)sulfonylpropanenitrile] registered an EC50 of 3.66 µM.

Consider `O=c1c(-c2ccc3c(c2)OCCO3)c(C(F)(F)F)oc2cc(O)cc(O)c12` [3-(2,3-dihydro-1,4-benzodioxin-6-yl)-5,7-bis(oxidanyl)-2-(trifluoromethyl)chromen-4-one], for which the half-maximal effective concentration (EC50) was determined as 4.13 µM.

With `CCOC(=O)c1oc2cc(O)c(CC)cc2c(=O)c1-c1ccc2c(c1)OCCO2` [3-(2,3-dihydro-1,4-benzodioxin-6-yl)-6-ethyl-7-hydroxy-4-keto-chromene-2-carboxylic acid ethyl ester], the EC50 is more than 10 µM.

Consider `Cc1cc(-c2nnc(-c3ccccc3)c(-c3ccccc3)n2)c(C)o1` [3-(2,5-dimethyl-3-furanyl)-5,6-diphenyl-1,2,4-triazine], for which a half-maximal response (EC50) required 2.97 µM.

Molecule `CCOc1ccc(-c2noc(-c3ccncc3)n2)cc1OCC` [3-(3,4-diethoxyphenyl)-5-(4-pyridyl)-1,2,4-oxadiazole] displayed a concentration giving a half-maximal response (EC50) of 0.613 µM.

`Cc1oc2cc(O)cc(O)c2c(=O)c1-c1ccc2c(c1)OCCCO2` [3-(3,4-dihydro-2H-1,5-benzodioxepin-7-yl)-2-methyl-5,7-bis(oxidanyl)chromen-4-one] displayed a half-maximal effective concentration (EC50) of 4.54 µM.

`COc1ccc(-c2noc(-c3cc(C)cc(C)c3)n2)cc1OC` [3-(3,4-dimethoxyphenyl)-5-(3,5-dimethylphenyl)-1,2,4-oxadiazole] had a concentration for a half-maximal effect (EC50) of 1.23 µM.

Staying with this assay, now noted: inactive by the depositor's call.
As for `CCOC(=O)c1sc2nc(NC(=O)C(C)(C)C)sc2c1C` [2-[(2,2-dimethyl-1-oxopropyl)amino]-6-methyl-5-thieno[2,3-d]thiazolecarboxylic acid ethyl ester], the EC50 was 12 µM.

`Clc1ccc(CSc2nnc(-c3ccncc3)o2)c(Cl)c1` [2-[(2,4-dichlorobenzyl)thio]-5-(4-pyridyl)-1,3,4-oxadiazole] showed an EC50 of 41.8 µM.

`N#Cc1nc(COc2ccc(Cl)cc2Cl)oc1N1CCN(c2ccccc2)CC1` [2-[(2,4-dichlorophenoxy)methyl]-5-(4-phenyl-1-piperazinyl)-4-oxazolecarbonitrile] yielded an EC50 of 13.9 µM.

The molecule `Cc1ccc2nc(NC(=O)CSc3nc4c(c(=O)n3C)SC(C)C4)sc2c1` (stereo not given) [2-[(3,6-dimethyl-4-oxidanylidene-6,7-dihydrothieno[3,2-d]pyrimidin-2-yl)sulfanyl]-N-(6-methyl-1,3-benzothiazol-2-yl)ethanamide] gave an EC50 of 13.2 µM.

In the case of `O=C(CSc1nnc(-c2ccc(Cl)cc2)n1Cc1ccco1)c1cccs1` [2-[[5-(4-chlorophenyl)-4-(2-furanylmethyl)-1,2,4-triazol-3-yl]thio]-1-thiophen-2-ylethanone], the midpoint of the response, the EC50, lay at 17.3 µM.

In the case of `Nn1c(Nc2ccccc2)nc2sc3c(c2c1=O)CCC3` [2-amino-3-anilino-7,8-dihydro-6H-cyclopenta[2,3]thieno[2,4-b]pyrimidin-1-one], the concentration for a half-maximal effect (EC50) came out at 16.4 µM.

The molecule `Cc1nc2sc(-c3ccccc3)cc2c(=O)n1-n1cccc1` [2-methyl-6-phenyl-3-(1-pyrrolyl)-4-thieno[2,3-d]pyrimidinone] came in with an EC50 of 22.2 µM.

Consider `COc1ccc(-c2cn3c(C)c(C(=O)N4CCCc5ccccc54)sc3n2)cc1` [3,4-dihydro-2H-quinolin-1-yl-[6-(4-methoxyphenyl)-3-methyl-2-imidazo[2,1-b]thiazolyl]methanone], for which the EC50 turned out to be 50.5 µM.

As to `Cc1ccc(-c2nc(COC(=O)c3c(C)noc3C)cs2)cc1` [3,5-dimethyl-4-isoxazolecarboxylic acid [2-(4-methylphenyl)-4-thiazolyl]methyl ester], the concentration for a half-maximal effect (EC50) worked out at 26.2 µM.

In the case of `Cc1onc(-c2ccccc2Cl)c1C(=O)Oc1cc(N)n(S(=O)(=O)c2ccc(F)cc2)n1` [3-(2-chlorophenyl)-5-methyl-4-isoxazolecarboxylic acid [5-amino-1-(4-fluorophenyl)sulfonyl-3-pyrazolyl] ester], the EC50 is 18.1 µM.

In the case of `CCOc1cc(-c2noc(-c3cccnc3)n2)ccc1OC` [3-(3-ethoxy-4-methoxy-phenyl)-5-(3-pyridyl)-1,2,4-oxadiazole], it took 18.7 µM to reach a half-maximal effect (EC50).
